These results are taken from US4033969A, “Vincamine derivatives” (Agence Nationale de Valorisation de la Recherche (ANVAR), priority 1972, dated 1977).

The structures appear in SMILES notation. Like-named read-outs stand apart in the source and are kept apart here.

Type in all cases: in vivo
A short description of data set [1]: Acute toxicity in mice (i.v.). As to conditions: mouse, in vivo, iv. As to the method:
(§1) 1. Acute toxicity in mice
(§2) The dosage of test material which, on intravenous administration in mice causes the death of 50% of the test animals is determined (death rate is determined after 10 days of observation).

Data set [2] has as its system mice. The experiment in a line: Survival time of mice under a confined atmosphere. As to conditions: for ED50: Mus musculus, protected = survival time greater by at least 30% than reference animals, read-out: ED50 (protects 50% of the test animals). As to the method: 2. Survival time of mice under a confined atmosphere
Mice are individually placed in sealed 250 ml glass jars. Survival time is measured taking respiratory failure as a criterion of death.
The test materials are administered as aqueous solutions:
either intraperitoneally, in which case the animals are submitted to the test 30 minutes after injection,
or orally, in which case the animals are submitted to the test 1.5 hour after administration.
The dosage of material (ED50) which protects 50% of the test animals is determined: is considered as protected, a mouse having a survival time greater by a factor of at least 30% with respect to the average survival time of the reference animals.

Data set [3] has as its system spinal rat. The experiment in a line: Electroencephalographic consequences of cerebral hypoxia induced by temporary ischemia in rat. As to conditions: for Cortical recovery time / Cortical resistance time: rat ischemia, 5 min prior; for Cortical recovery time: saline 19.8 ± 1.3; for Cortical resistance time: saline 22.3 ± 0.6. As to the method: 3. Electroencephalographic consequences of cerebral hypoxia induced by temporary ischemia in rat
In spinal rat, the effects of a temporary cerebral ischemic hypoxia obtained by ligation of the vertebral arteries and clamping, during 60 seconds, of the carotid arteries, are investigated at the level of the electrocorticogram (recorded in fronto-parietal lead). The following times are determined:
on the one hand, the "cortical resistance" time, i.e., the period of time which elapses between failure of the cerebral circulation and the appearance, in the recording, of the "dectric silence"disappearance of cortical electrogenesis), and
on the other hand, the "cortical recovery" time, i.e., the period of time which elapses between unclamping of the carotid arteries and the reappearance of a cortical electrogenesis.
The test materials are administered intravenously 5 minutes prior to ischemia. The results obtained in the treated animals are compared with those obtained in a lot of reference animals according to Student's "t" method.

Data set [4] deals with curarized rat. The experiment in a line: Electroencephalographic consequences of cerebral hypoxia induced by temporary asphyxia in rat. The note with it: for Cortical recovery time / Cortical resistance time: rat asphyxia, 5 min prior; for Cortical recovery time: saline 42.3 ± 7.3; for Cortical resistance time: saline 77.8 ± 2.9. The source says: 4. Electroencephalographic consequences of a cerebral hypoxia induced by temporary asphyxia in rat
The effects of an asphyxic cerebral hypoxia, obtained by a two-minute interruption of the artificial respiration of a curarized rat are investigated at the level of the electro-corticogram (recorded in fronto-parietal lead) by determining:
on the one hand the "cortical resistance" time, i.e., the period of time which elapses between the discontinuation of artificial respiration and the appearance in the recording of the "electric silence" (disappearance of cortical electrogenesis),
on the other hand, the "cortical recovery" time, i.e., the period of time which elapses between the resumption of artificial respiration and the reappearance of a cortical electrogenesis.
(§3) The test materials are administered intravenously 5 minutes prior to asphyxia. The results obtained in the treated animals are compared with those obtained in a lot of reference animals, according to Student's "t" method.

Data set [5] concerns curarized cat. The experiment in a line: Electroencephalographic consequences of cerebral hypoxia induced by temporary asphyxia in cat. The note with it: for Cortical recovery time / Cortical resistance time: cat asphyxia, 5 min prior; for Cortical recovery time: saline 27.3 ± 2.3; for Cortical resistance time: saline 108 ± 5.6.
Description: 5. Electroencephalographic consequences of cerebral hypoxia induced by temporary asphyxia in cat
The effects of an asphyxic cerebral hypoxia, obtained by temporary discontinuance of the artificial respiration of a curarized cat are investigated at the level of the electrocorticogram (recorded in parieto-occipital lead), by determining:
on the one hand, the "cortical resistance" time, i.e., the period of time which elapses between the discontinuance of the artificial respiration and the appearance in the recording of the "electric silence" (disappearance of cortical electrogenesis),
on the other hand, the "cortical recovery" time, i.e., the period of time which elapses between the resumption of artificial respiration and the reappearance of a cortical electrogenesis. The resumption of artificial respiration is effected in all cases 45 seconds after appearance of the cortical silence.
as §3

Data set [6] has as its system mice. The experiment in a line: Acute toxicity in mice (i.v.). As to conditions: mice. Here is the method: as §1, §2
The mark [7] stands for this setting: ip, 0.5 h, i.p., 30 min before test.
Where [8] appears, read: 2.5 mg/kg i.v., n=6, mean ± standard deviation from mean.
Where [9] appears, read: 2.5 mg/kg i.v., n=8, mean ± standard deviation from mean.

What is called LD50 is the dose at which mortality reaches 50%. The ED50 is the midpoint of the dose-response relation. `CC[C@]12CCCN3CCc4c(n(c5ccccc45)[C@@](O)(C(=O)OC)C1)[C@@H]32` (racemic) [Vincamine, (.-+.)-Vincamine] showed an LD50 at 240 h in data set [1] (mice, i.v., death rate after 10 days of observation) of 62 mg/kg. For the same compound, the ED50 in data set [2] (setting [7]) came to 18 mg/kg; in data set [2] (po, 1.5 hour before test), 40 mg/kg. Also, the “Number of mice protected” value in data set [2] (i.p., 1 mg/kg, 30 min before test) is listed as 0/6; in data set [2] (i.p., 5 mg/kg, 30 min before test), 1/6; in data set [2] (i.p., 25 mg/kg, 30 min before test), 4/6; in data set [2] (p.o., 25 mg/kg, 1.5 hour before test) it was 2/6; in data set [2] (p.o., 50 mg/kg, 1.5 hour before test) it was 4/6; in data set [2] (p.o., 100 mg/kg, 1.5 hour before test), 5/6. Moreover, the Cortical recovery time came out at 21.8 ± 2.0 s in data set [3] (setting [8]); 19.9 ± 3.0 s in data set [3] (5 mg/kg i.v., n=7); 55.5 ± 20.2 s in data set [4] (setting [8]); 32.8 ± 1.8 s in data set [4] (5.0 mg/kg i.v., n=6); 24.6 ± 3.4 s in data set [5] (setting [9]); 19.6 ± 1.4 s in data set [5] (5 mg/kg i.v., n=8, (*) significant P <0.05 vs controls). Besides, the Cortical resistance time in data set [3] (setting [8]) is 22.2 ± 1.2 s; in data set [3] (5 mg/kg i.v., n=7), 23.4 ± 0.9 s; in data set [4] (setting [8]), 83.3 ± 6.4 s; in data set [4] (5.0 mg/kg i.v., n=6) it was 89.0 ± 7.6 s; in data set [5] (setting [9]) it was 101 ± 13.9 s; in data set [5] (5 mg/kg i.v., n=8), 101 ± 5.6 s. Also, the protective activity result is listed as “free from any protective activity” in data set [3] (rat, ischemia, 2.5 and 5 mg/kg i.v.); “free from any protective activity” in data set [4] (rat, asphyxia, 2.5 and 5 mg/kg i.v.); “apparent only at a tenfold dosage of 5 mg/kg i.v” in data set [5] (cat, asphyxia, 5 mg/kg i.v. (tenfold dosage)).
On to `COC(=O)[C@@]1(O)C[C@@H]2CCCN3CCc4c(n1c1ccccc41)[C@H]23` (relative stereo) [Deethylvincamine, (±) 20-Deethyl-vincamine], for which the LD50 at 240 h in data set [1] amounted to 40 mg/kg. Moreover, the “acute toxicity compared with vincamine” value in data set [6] was “substantially of the same order of magnitude as that of vincamine”. The ED50 stood at 8 mg/kg in data set [2] (setting [7]) and 24.5 mg/kg in data set [2] (po, 1.5 hour before test). Moreover, the “Number of mice protected” value in data set [2] (i.p., 3 mg/kg, 30 min before test) is on record as 1/6; in data set [2] (i.p., 9 mg/kg, 30 min before test), 3/6; in data set [2] (i.p., 27 mg/kg, 30 min before test) it was 6/6; in data set [2] (p.o., 7.5 mg/kg, 1.5 hour before test), 0/6; in data set [2] (p.o., 15 mg/kg, 1.5 hour before test), 1/6; in data set [2] (p.o., 30 mg/kg, 1.5 hour before test) it was 4/6. Also, the “protective activity (increase of the survival time)” value in data set [2] (mice, confined atmosphere, i.p. and p.o., compared with vincamine) was “markedly superior to that of vincamine”. Moreover, the Cortical recovery time was found to be 20.3 ± 2.7 s in data set [3] (0.25 mg/kg i.v., n=6); 14.3 ± 1.1 s in data set [3] (0.5 mg/kg i.v., n=6, (*) significant P < 0.05 vs controls); 38.8 ± 5.9 s in data set [4] (0.5 mg/kg i.v., n=6); 23.0 ± 5.0 s in data set [4] (1 mg/kg i.v., n=7, (*) significant P<0.05 vs controls); 19.0 ± 2.0 s in data set [5] (0.5 mg/kg i.v., n=6, (*) significant P <0.05 vs controls). In addition, the Cortical resistance time in data set [3] (0.25 mg/kg i.v., n=6) was found to be 25.3 ± 1.2 s; in data set [3] (0.5 mg/kg i.v., n=6) it was 24.3 ± 1.6 s; in data set [4] (0.5 mg/kg i.v., n=6), 84.2 ± 4.5 s; in data set [4] (1 mg/kg i.v., n=7), 78.0 ± 5.6 s; in data set [5] (0.5 mg/kg i.v., n=6), 98 ± 10.8 s. Besides, the “protective activity (decrease of time required for resumption of cortical electrogenesis)” value in data set [3] (rat, ischemia, 0.5 mg/kg i.v.) is reported as “marked protective activity”; in data set [4] (rat, asphyxia, 1 mg/kg i.v.) it was “marked protective activity”; in data set [5] (cat, asphyxia, 0.5 mg/kg i.v.) it was “exhibits a protective activity”.
